Legend:
[1] = transmission and 5° regular-reflection spectra of spin-coated organic film on glass plate; type: physicochemical; details: 2 parts in 98 parts 1,1,2-trichloroethane
Description: A solution composed of 2 parts by weight of bis(tri-n-propylsiloxy)silicon-tetra(n-dodecylthio)naphthalocyanine [illustrative compound (100)] and 98 parts by weight of 1,1,2-trichloroethane was coated on a glass plate by a spin coating method and dried at about 80° C. for about 15 minutes to form an organic film. Transmission spectrum and 5° regular-reflection spectrum of the organic film of the illustrative compound are shown in FIG. 39 and FIG. 40, respectively.
An organic film of the same vanadyl-tetra(t-butyl) naphthalocyanine as used in Comparative Example 1 was formed on a glass plate in the same manner as in Test Example 2, and transmission spectrum (FIG. 43) and 5° regular-reflection spectrum (FIG. 44) of the organic film were measured.
A solution composed of 1 part by weight of each of the naphthalocyanine derivatives (127), (99) and (102) exemplified and 99 parts by weight of tetrahydrofuran was coated on a glass plate by a spin coating method and dried at about 80° C. for about 15 minutes to form an organic film. Transmission spectra and 5° regular-reflection spectra of the thus formed organic films of the naphthalocyanine derivatives are summarized in FIG. 45 and FIG. 46, respectively.

[2] = electronic spectra in various solvents; type: physicochemical
Description: Bis(tri-n-propylsiloxy)silicon-tetra(ndodecylthio)n-aphthalocyanine [illustrative compound (100)] was dissolved in various solvents and its electronic spectra were measured. The electronic spectra in chloroform, tetrahydrofuran, acetone, toluene and hexane are shown in […], FIG. 35, FIG. 36, FIG. 37 and FIG. 38, respectively.
Vanadyl-tetra(t-butyl)-naphthalocyanine synthesized according to the method described in Zhurnal Obshchei Khimii, vol. 42, p. 696 (1972) was dissolved in each of chloroform and benzene and its electronic spectra were measured. The electronic spectra in chloroform and benzene are shown in FIG. 41 and FIG. 42, respectively.

Q: Which “light-absorbing ability in the diode laser region (780 to 830 nm)” value [1] does the source give for Vanadyl-tetra(t-butyl)-naphthalocyanine here?
A: did not have very high light-absorbing ability

Q: And the “reflectivity in the diode laser region (780 to 830 nm)” value [1]?
A: ≤ 20%

Q: What about the “change of absorption with concentration” value ([2]; electronic spectra in chloroform and benzene) of the same substance?
A: The higher the concentration, the weaker the absorption near 800 nm and the stronger the absorption at 720 to 730 nm

Q: And the “dependence of absorption waveform on kind of solvent and concentration” value ([2]; electronic spectra in solution)?
A: varied depending on the kind of solvent and the conventration of solution

Source: US5034309A, “Naphthalocyanine derivatives and their use in optical recording medium” (Hitachi Chemical Co., Ltd., priority 1987, dated 1991)
